Read-outs that look alike come from different tables or passages of the source.
Columns and labels:
[1] = tested on: ubiquinone binding site of complex I (IQ); test: High-throughput screen: ROS production from ubiquinone binding site of complex I (IQ), isolated skeletal muscle mitochondria; type: biochemical, rat; details: for IQ: percent change in ROS from DMSO controls; for % Reduction in ROS production (IQ): Table 2, 5 mM succinate, compounds 2.5 μM, percent change from DMSO, positive control −100%
Protocol: (§1) Skeletal muscle mitochondria were isolated from 5-8 week old female Wistar rats (Harlan Laboratories). Minced muscle was homogenized in buffer containing bacterial protease Type VIII prior to differential centrifugation to separate mitochondria from other tissue components. Unless otherwise stated, freshly isolated muscle mitochondria were assayed in buffer containing 120 mM KCl, 5 mM HEPES, 1 mM EGTA, 0.3% (w/v) bovine serum albumin. Where indicated, CaCl2 was added to yield a final free concentration of 250 nM calcium at pH 7.0 at 37° C.
(§2) Compounds (10 mM in DMSO) were randomly selected from a library of 24,000 compounds obtained from ChemBridge and curated by the lab of Robert Hughes at the Buck Institute. Master screening plates were prepared using a Biomek FX liquid handling workstation (Beckman) to transfer 1 μL of each compound into individual wells on 96-well storage plates (80 compounds per plate). Master plates were sealed with foil and stored at −80° C. Just prior to use, plates were brought to room temperature and diluted 300-fold with standard buffer (13.3X=33.3 μM). To monitor the performance of each assay throughout screening and to provide intra-plate normalization reference points, DMSO negative controls and known mitochondrial inhibitor positive controls were included on each Master compound plate.
(§3) Total amounts of superoxide and H2O2 production were determined fluorometrically as H2O2, without distinguishing between them, in the presence of exogenous superoxide dismutase (25 units/mL final), horseradish peroxidase (1 unit/mL final), and Amplex UltraRed (25 μM final) as described (Affourtit, C. et al. (2012) Measurement of proton leak and electron leak in isolated mitochondria. Methods Mol. Biol. 810: 165-82). Just prior to use, a bulk 3.3X solution was made in standard buffer and distributed into a 2 mL deep well 96-well transfer plate.
To assess the effects of a compound on ROS production from the ubiquinone binding site of complex I (IQ), Start Solution containing 5 mM succinate was distributed into standard 96-well transfer plates. A Biomek FX workstation was programmed to dispense solutions into black 96-well assay plates. Solutions were dispensed to all assay plates in the following order: ROS Detection solution described in Example 3, Mitochondria solution described in Example 1 to a final concentration of 0.1 mg/ml, and Compound dilutions described in Example 2. Duplicate assay plates were made and each was initiated by the addition of 3.3X Start solution containing 5 mM succinate. Plates were incubated in the dark at room temperature for 30-40 minutes before acquiring endpoint fluorescence using a Victor 3V plate reader (Perkin Elmer) equipped with 550/590 nm excitation/emission filters.
The fluorescence values in each well were scaled as the percent change from the intra-plate DMSO controls with the appropriate inhibitor positive controls defined as −100%. Following initial scaling, intra-plate normalized values were subjected to Tukey's two-way median polish to remove row and column dependent positional effects (Malo et al, 2006).

[2] = target: T1, flavin binding site of complex I (IF) (Rattus norvegicus, UniProt Q5XIH3); test: High-throughput screen: ROS production from flavin binding site of complex I (IF); type: biochemical
T1 construct: freshly isolated muscle mitochondria were assayed; from tissue; host or cells: rat skeletal muscle mitochondria (Wistar, Harlan Laboratories)
T1 sequence (Q5XIH3 21-464 limits assumed, one chain of several): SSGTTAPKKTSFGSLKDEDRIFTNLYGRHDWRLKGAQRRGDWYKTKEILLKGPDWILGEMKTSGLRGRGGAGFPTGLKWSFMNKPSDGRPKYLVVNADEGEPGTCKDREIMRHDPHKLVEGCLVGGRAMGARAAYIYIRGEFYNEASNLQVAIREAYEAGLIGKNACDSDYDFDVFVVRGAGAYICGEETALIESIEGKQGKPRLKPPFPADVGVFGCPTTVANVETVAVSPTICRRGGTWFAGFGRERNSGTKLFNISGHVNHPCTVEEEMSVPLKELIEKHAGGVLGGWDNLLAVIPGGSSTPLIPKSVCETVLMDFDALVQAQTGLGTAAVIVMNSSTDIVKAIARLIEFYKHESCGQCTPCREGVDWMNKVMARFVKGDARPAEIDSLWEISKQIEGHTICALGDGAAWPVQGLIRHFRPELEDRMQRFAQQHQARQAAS
Protocol: as §1
Master screening plates were prepared using a Biomek FX liquid handling workstation (Beckman) to transfer 1 μL of each compound into individual wells on 96-well storage plates (80 compounds per plate). […] Just prior to use, plates were brought to room temperature and diluted 300-fold with standard buffer (13.3X=33.3 μM). To monitor the performance of each assay throughout screening and to provide intra-plate normalization reference points, DMSO negative controls and known mitochondrial inhibitor positive controls were included on each Master compound plate.
as §3
To assess the effects of a compound on ROS production from the flavin binding site of complex I (IF), Start Solution containing 5 mM glutamate, 5 mM malate and 4 μM rotenone was distributed into standard 96-well transfer plates. A Biomek FX workstation was programmed to dispense solutions into black 96-well assay plates. Solutions were dispensed to all assay plates in the following order: ROS Detection solution described in Example 3, Mitochondria solution described in Example 1 to a final concentration of 0.3 mg/ml, and Compound dilutions described in Example 2. Duplicate assay plates were made and each was initiated by the addition of 3.3X Start solution containing 5 mM glutamate, 5 mM malate and 4 μM rotenone. Plates were incubated in the dark at room temperature for 30-40 minutes before acquiring endpoint fluorescence using a Victor 3V plate reader (Perkin Elmer) equipped with 550/590 nm excitation/emission filters.
The fluorescence values in each well were scaled as the percent change from the intra-plate DMSO controls with the appropriate inhibitor positive controls defined as −100%. Following initial scaling, intra-plate normalized values were subjected to Tukey's two-way median polish to remove row and column dependent positional effects (Malo, N. et al. (2006) Statistical practice in high-throughput screening data analysis. Nat. Biotechnol. 24(2): 167-75).

[3] = target: T2, outer ubiquinone binding site of complex III (IIIQO) (Rattus norvegicus, UniProt P00159+P20788); test: High-throughput screen: ROS production from outer ubiquinone binding site of complex III (IIIQO); type: biochemical
T2 construct: freshly isolated muscle mitochondria were assayed; from tissue; host or cells: rat skeletal muscle mitochondria (Wistar, Harlan Laboratories)
Protocol: as §1, §2, §3
To assess the effects of a compound on ROS production from the outer ubiquinone binding site of complex III (IIIQO), Start Solution containing 5 mM succinate, 4 μM rotenone and 2.5 μM antimycin A was distributed into standard 96-well transfer plates. A Biomek FX workstation was programmed to dispense solutions into black 96-well assay plates. Solutions were dispensed to all assay plates in the following order: ROS Detection solution described in Example 3, Mitochondria solution described in Example 1 to a final concentration of 0.1 mg/ml, and Compound dilutions described in Example 2. Duplicate assay plates were made and each was initiated by the addition of 3.3X Start solution containing 5 mM succinate, 4 μM rotenone and 2.5 μM antimycin A. Plates were incubated in the dark at room temperature for 30-40 minutes before acquiring endpoint fluorescence using a Victor 3V plate reader (Perkin Elmer) equipped with 550/590 nm excitation/emission filters.
The fluorescence values in each well were scaled as the percent change from the intra-plate DMSO controls with the appropriate inhibitor positive controls defined as −100%. Following initial scaling, intra-plate normalized values were subjected to Tukey's two-way median polish to remove row and column dependent positional effects (Malo et al., 2006).

[4] = target: T3, succinate dehydrogenase/complex II (SDH) (Rattus norvegicus, UniProt P21913+Q641Z9+Q6PCT8+Q920L2); test: High-throughput screen: ROS production from succinate dehydrogenase/complex II (SDH); type: biochemical; details: for inhibition at 2.5 µM / SDH: percent change in ROS from DMSO controls; for % Reduction in ROS Production (SDH): Table 5, 15 μM palmitoyl carnitine, 2.5 μM antimycin A, 2 μM myxothiazol, compounds 2.5 μM, percent change from DMSO
T3 construct: freshly isolated muscle mitochondria were assayed; from tissue; host or cells: rat skeletal muscle mitochondria (Wistar, Harlan Laboratories)
T3 sequence (Q920L2 35-656): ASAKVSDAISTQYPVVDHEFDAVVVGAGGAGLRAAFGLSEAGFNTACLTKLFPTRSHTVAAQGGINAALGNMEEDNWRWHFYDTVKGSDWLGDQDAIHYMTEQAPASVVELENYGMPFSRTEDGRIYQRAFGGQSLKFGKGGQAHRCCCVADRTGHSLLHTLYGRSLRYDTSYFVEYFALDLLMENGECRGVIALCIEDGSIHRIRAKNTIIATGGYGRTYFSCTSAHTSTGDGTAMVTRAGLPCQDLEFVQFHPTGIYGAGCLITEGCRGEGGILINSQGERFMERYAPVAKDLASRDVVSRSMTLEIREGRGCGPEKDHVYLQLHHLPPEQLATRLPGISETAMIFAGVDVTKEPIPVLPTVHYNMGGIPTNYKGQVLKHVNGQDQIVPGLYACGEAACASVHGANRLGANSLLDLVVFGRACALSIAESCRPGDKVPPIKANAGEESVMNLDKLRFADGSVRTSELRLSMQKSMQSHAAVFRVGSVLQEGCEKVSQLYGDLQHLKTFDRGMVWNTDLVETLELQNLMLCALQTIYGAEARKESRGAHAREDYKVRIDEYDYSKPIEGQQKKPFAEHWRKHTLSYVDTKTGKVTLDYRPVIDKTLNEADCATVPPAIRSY
T3 sequence (P21913 31-282): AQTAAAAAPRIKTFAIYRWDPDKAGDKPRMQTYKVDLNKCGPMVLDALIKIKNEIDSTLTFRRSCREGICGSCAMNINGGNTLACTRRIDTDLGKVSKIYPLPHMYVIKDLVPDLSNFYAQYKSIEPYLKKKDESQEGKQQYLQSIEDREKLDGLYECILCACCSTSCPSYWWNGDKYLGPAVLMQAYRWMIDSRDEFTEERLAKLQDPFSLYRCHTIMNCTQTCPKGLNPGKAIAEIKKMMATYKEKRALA
T3 sequence (Q641Z9 30-169 limits assumed): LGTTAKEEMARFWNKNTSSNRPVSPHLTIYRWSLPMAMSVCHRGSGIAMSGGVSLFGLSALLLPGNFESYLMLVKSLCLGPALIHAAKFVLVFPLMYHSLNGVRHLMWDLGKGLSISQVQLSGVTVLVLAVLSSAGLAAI
T3 sequence (Q6PCT8 57-159): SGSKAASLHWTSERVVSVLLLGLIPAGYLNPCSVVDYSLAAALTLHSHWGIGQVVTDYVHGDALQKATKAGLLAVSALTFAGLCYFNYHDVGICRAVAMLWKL

[5] = target: T4, glycerol-3-phosphate dehydrogenase (GPDH) (Rattus norvegicus, UniProt P35571); test: High-throughput screen: ROS production from glycerol-3-phosphate dehydrogenase (GPDH); type: biochemical; parameters: inhibition: dose or concentration left out as unconfirmed; details: for inhibition / GPDH: percent change in ROS from DMSO controls; for inhibition at 2.5 µM: Table 6, 25 mM glycerol phosphate, rotenone, antimycin A, malonate, myxothiazol, compounds 2.5 μM, scaled to IQ positive controls, read-out: % Reduction in ROS Production (GPDH)
T4 construct: The activity of GPDH in intact mitochondria (0.3 mg/mL) was measured; from tissue; host or cells: rat skeletal muscle mitochondria (Wistar, Harlan Laboratories)
T4 sequence (P35571 43-727): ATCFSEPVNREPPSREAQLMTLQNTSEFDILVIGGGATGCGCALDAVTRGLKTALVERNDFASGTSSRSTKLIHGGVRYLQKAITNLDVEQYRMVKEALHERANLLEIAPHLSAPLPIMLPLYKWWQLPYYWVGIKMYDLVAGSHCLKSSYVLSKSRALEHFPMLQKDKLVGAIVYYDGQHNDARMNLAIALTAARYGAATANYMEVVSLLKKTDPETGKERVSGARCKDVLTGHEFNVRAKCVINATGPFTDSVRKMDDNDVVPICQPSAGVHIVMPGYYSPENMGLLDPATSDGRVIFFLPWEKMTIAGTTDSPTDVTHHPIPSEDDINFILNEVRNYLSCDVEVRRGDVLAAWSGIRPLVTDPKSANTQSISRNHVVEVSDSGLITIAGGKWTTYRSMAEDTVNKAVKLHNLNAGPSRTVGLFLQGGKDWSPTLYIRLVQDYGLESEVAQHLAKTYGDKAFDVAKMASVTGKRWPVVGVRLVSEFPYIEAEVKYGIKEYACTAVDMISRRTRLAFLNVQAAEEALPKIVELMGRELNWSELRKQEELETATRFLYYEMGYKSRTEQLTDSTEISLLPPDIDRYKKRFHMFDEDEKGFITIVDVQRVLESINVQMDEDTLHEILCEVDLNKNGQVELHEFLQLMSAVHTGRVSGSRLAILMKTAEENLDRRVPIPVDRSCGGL

[6] = tested on: mitochondrial membrane potential (ΔΨm); test: Membrane potential (ΔΨm) counterscreen with TMRM; details: malate, nigericin
[7] = Table 3, 5 mM glutamate, 5 mM malate, 4 μM rotenone, compounds 2.5 μM, percent change from DMSO, positive control −100%, read-out: % Reduction in ROS production (IF)
[8] = Table 7, percent change in ROS from DMSO controls, read-out: IF
[9] = Table 8, percent change in ROS from DMSO controls
[10] = Table 9, percent change in ROS from DMSO controls
[11] = Table 7, percent change in ROS from DMSO controls, read-out: IIIQO
[12] = Table 9, percent change in ROS from DMSO controls, read-out: IIIQo
[13] = Table 4, 5 mM succinate, 4 μM rotenone, 2.5 μM antimycin A, compounds 2.5 μM, percent change from DMSO, read-out: % Reduction in ROS production (IIIQO)
[14] = Table 7, percent change in ROS from DMSO controls
[15] = Table 8, percent change in ROS from DMSO controls, read-out: IF
[16] = Table 8, percent change in ROS from DMSO controls, read-out: IIIQO

SMILES | inhibition at 2.5 µM [3, 11] | IIIQO [3, 9] | inhibition at 2.5 µM [3, 12] | inhibition at 2.5 µM ([4]; Table 7) | SDH ([4]; Table 8) | SDH ([4]; Table 9) | inhibition ([5]; Table 7) | GPDH ([5]; Table 8) | GPDH ([5]; Table 9) | inhibition at 2.5 µM [3, 13] | IQ ([1]; Table 7) | IQ ([1]; Table 8) | IQ ([1]; Table 9) | inhibition at 2.5 µM [2, 8] | IF [2, 9] | IF [2, 10] | ΔΨm ([6]; Table 8, glutamate) | ΔΨm ([6]; Table 9, glutamate) | further results
O=C(Nc1ccc(Br)cc1)[C@@H]1C2C=CC(C2)[C@@H]1C(=O)O (stereo partly shown) [Compound 28] | 2.5% | −2.5 | 2.5% | -1.3% | 1.3 | 1.3 | 2.3% | −2.3 | −2.3 | – | 0.2 | 0.2 | 0.2 | 19.1% | −19.1 | −19.1 | −1.3 | −1.3 | inhibition at 2.5 µM [2, 7]: 19.1%
Cc1ccc(CCSc2ccc(F)cc2)cn1 [Compound 35] | 34.9% | −34.9 | 34.9% | -0.2% | 0.2 | 0.2 | 5.3% | −5.3 | −5.3 | 34.9% | 1.3 | 1.3 | 1.3 | 0.7% | −0.7 | −0.7 | 0.6 | 0.6 | –
Cc1cc(C)c(S(=O)(=O)N2CCCC2=O)c(C)c1 [Compound 40] | 25.1% | −25.1 | 25.1% | 2.7% | −2.7 | −2.7 | 4.2% | −4.2 | −4.2 | 25.1% | 4.3 | 4.3 | 4.3 | -1.8% | 1.8 | 1.8 | 0.7 | 0.7 | –
Fc1ccc(SCCc2ccccn2)cc1 [Compound 42] | 24.1% | −24.1 | 24.1% | -0.7% | 0.7 | 0.7 | 0.3% | −0.3 | −0.3 | 24.1% | 7.9 | 7.9 | 7.9 | 2.6% | −2.6 | −2.6 | 0.4 | 0.4 | –
O=C(O)/C=C/C(=O)Nc1ccc(/C=C/c2ccccc2)cc1 [Compound 49] | -10% | 10.0 | -10% | 1% | −1.0 | −1.0 | 12.7% | −12.7 | −12.7 | – | 1.7 | 1.7 | 1.7 | -1% | 1.0 | 1.0 | −0.3 | −0.3 | inhibition at 2.5 µM [5]: 12.7%
Cl.OC12CCCCC1C(c1cccc(Cl)c1)NCC2 (stereo not shown) [Compound 51] | 9.8% | −9.8 | 9.8% | 1.8% | −1.8 | −1.8 | 12% | −12.0 | −12.0 | – | −2.8 | −2.8 | −2.8 | -5.5% | 5.5 | 5.5 | 0.9 | 0.9 | –
COc1ccc(C2C(C#N)=C(N)Oc3c2c(=O)oc2ccccc32)cc1O (stereo not shown) [Compound 74] | 7.6% | −7.6 | 7.6% | 20.9% | −20.9 | −20.9 | 3.5% | −3.5 | −3.5 | – | −0.7 | −0.7 | −0.7 | -0.4% | 0.4 | 0.4 | 0.8 | 0.8 | % Reduction in ROS Production (SDH) [4]: −20.9%
COc1ccc(NC(=S)NC(=O)c2ccco2)cc1 [Compound 75] | – | – | – | – | – | – | – | – | – | – | – | −50 | – | – | – | – | −2 | – | % Reduction in ROS production (IQ) [1]: −50%; inhibition at 2.5 µM [2, 7]: 83%; inhibition at 2.5 µM [2, 15]: 83%; inhibition at 2.5 µM [3, 16]: -3%; % Reduction in ROS Production (SDH) [4]: −22%; inhibition at 2.5 µM ([4]; Table 8): 22%; inhibition at 2.5 µM [5]: 16%; inhibition ([5]; Table 8): 16%
O=C(Nc1nn[nH]n1)C1CCCCC1 [Compound 76] | – | – | – | – | – | – | – | – | – | – | – | −24 | – | – | – | – | 0 | – | % Reduction in ROS production (IQ) [1]: −24%; inhibition at 2.5 µM [2, 7]: 34%; inhibition at 2.5 µM [2, 15]: 34%; inhibition at 2.5 µM [3, 16]: 0%; inhibition at 2.5 µM ([4]; Table 8): -3%; inhibition ([5]; Table 8): 0%

Second part, led by results:

inhibition at 2.5 µM [3, 11] | IIIQO [3, 9] | inhibition at 2.5 µM [3, 12] | inhibition at 2.5 µM ([4]; Table 7) | SDH ([4]; Table 8) | SDH ([4]; Table 9) | inhibition ([5]; Table 7) | GPDH ([5]; Table 8) | GPDH ([5]; Table 9) | inhibition at 2.5 µM [3, 13] | SMILES | IQ ([1]; Table 7) | IQ ([1]; Table 8) | IQ ([1]; Table 9) | inhibition at 2.5 µM [2, 8] | IF [2, 9] | IF [2, 10] | ΔΨm ([6]; Table 8, glutamate) | ΔΨm ([6]; Table 9, glutamate) | further results
33.6% | −33.6 | 33.6% | 1.1% | −1.1 | −1.1 | 4.9% | −4.9 | −4.9 | 33.6% | c1cc2c3c(ccc(CSCCc4ccncc4)c3c1)CC2 [Compound 36] | 3.7 | 3.7 | 3.7 | -0.6% | 0.6 | 0.6 | 0.0 | 0.0 | –
24.7% | −24.7 | 24.7% | -1.2% | 1.2 | 1.2 | -2.6% | 2.6 | 2.6 | 24.7% | COc1ccc(-c2ccccc2)cc1NCC1=CC[C@H]2C[C@@H]1C2(C)C [Compound 41] | 0.2 | 0.2 | 0.2 | -6.6% | 6.6 | 6.6 | 2.3 | 2.3 | –
-5.4% | 5.4 | -5.4% | 27.4% | −27.4 | −27.4 | -1.7% | 1.7 | 1.7 | – | Oc1nnc(Cc2ccncc2)c2ccccc12 [Compound 72] | 0.4 | 0.4 | 0.4 | -2.6% | 2.6 | 2.6 | 1.0 | 1.0 | % Reduction in ROS Production (SDH) [4]: −27.4%
– | −1.3 | – | – | −26.9 | −26.9 | – | −2.4 | −2.4 | – | O=C(Nc1ccccc1[N+](=O)[O-])c1cccc(S(=O)(=O)Nc2ccccc2)c1 [Compound 73] | −4.6 | −4.6 | −4.6 | – | −0.7 | −0.7 | −0.2 | −0.2 | IF [2, 14]: −0.7; IIIQO [3, 14]: −1.3; IIIQO [3, 10]: −1.3; % Reduction in ROS Production (SDH) [4]: −26.9%; SDH ([4]; Table 7): −26.9; GPDH ([5]; Table 7): −2.4
– | – | – | – | – | – | – | – | – | 15% | c1ccc(C2CCC(Nc3ccc4c(c3)OCO4)CC2)cc1 (stereo not shown) [Compound 77] | – | −18 | – | – | – | – | 1 | – | % Reduction in ROS production (IQ) [1]: −18%; inhibition at 2.5 µM [2, 15]: 6%; inhibition at 2.5 µM [3, 16]: 15%; inhibition at 2.5 µM ([4]; Table 8): 0%; inhibition ([5]; Table 8): -1%

— patent US20140128352A1, “COMPOUNDS AND METHODS FOR MODULATING MITOCHONDRIAL METABOLISM AND REACTIVE OXYGEN SPECIES PRODUCTION” (Buck Institute for Research on Aging, priority 2012, published 2014)
